The values below come from patent publication US12721823B2, “Methods and compositions for treatment of low circulating testosterone conditions” (University of Florida Research Foundation, Inc., priority 2021, dated 2026).

Data set [1] relates to Sprague-Dawley rats. Description: Acute serum corticosterone 1 h after last sevoflurane exposure (ELISA). The data set is classed as in vivo, rat. To be noted: sevoflurane 3 h on P56, P58, P60, 1 h after last exposure, vs control. How it is done:
Male and female rats in Generation 1 (G1) underwent anesthesia on postnatal days 56, 58 and 60. During this period, rats were held in a temperature-controlled chamber (+37° C.) with a continuous supply of 30% oxygen in air (1.5 L/min) during anesthesia-6% sevoflurane for 3 min for anesthesia induction and 2.1% sevoflurane for 177 min for anesthesia maintenance (the Sevoflurane group). Gas monitoring was performed using a calibrated Datex side stream analyzer (Datex-Ohmeda, Helsinki, Finland), which samples from the animal chamber interior. Rats in the G1 control group (Control) were not subjected to anesthesia. A subset of the rats in the G1 Control and Sevoflurane groups was sacrificed 1 h after the last exposure to sevoflurane (or equivalent timepoint in the Control group) to collect blood and brain tissue samples. FIG. 1 provides a schematic of experimental design. The remaining Control and Sevoflurane G1 male and female rats were mated on P85 to produce offspring (generation 2, G2). […] Serum corticosterone was measured using commercial ELISA kits (Cayman Chemical Company, Ann Arbor, MI, USA) according to the manufacturer's instructions. […] (FIGS. 2C-2F) Representative confocal images and quantitative analysis of the KCC2 immunoreactivity in the paraventricular nucleus (PVN) of the hypothalamus of the control and sevoflurane-exposed male (FIGS. 2C, 2E) and female (FIGS. 2D, 2F) rats. […]

Data set [2] has as its system Sprague-Dawley rats. Description: Elevated plus maze (EPM). The data set is classed as in vivo, rat. The source says: Sixty-four G1 rats (32 control and 32 sevoflurane exposed) and 122 G2 rats, which were not exposed to sevoflurane anesthesia and were subjected to animal facility rearing only, were studied. The G1 rats were sequentially evaluated in the EPM starting on ~P125, PPI of the acoustic startle response on ~P135 and MWM starting ~on P145 (FIG. 1). One half of these animals were sacrificed on ≥P160 to collect trunk blood, brain and testis and ovarian tissues for further analyses. The rest of these animals were physically restrained for 30 min on ≥P160 to measure corticosterone responses, followed by collection of tissue samples (as above) for further analyses. The G2 rats were evaluated in the EPM starting on P60 and PPI of startle on P70 (FIG. 1). One half of these animals were sacrificed on ≥P95 to collect trunk blood and brain tissue samples for further analyses, and the rest of these animals were tested for the corticosterone responses to physical restraint for 30 min on ≥P95 before collecting the trunk blood and brain tissue samples.
The EPM studies were performed using an EPM apparatus and BIO-EPM 3C video tracking software (EB Instruments, Pinellas Park, FL) during the light phase of the dark-light cycle as previously described by our laboratory.^5-7 If a fall occurred, the animal was removed from the study (one G1 male rat was removed from the study for this reason).

Setting [3] is: G1 male rats, more than two months after exposure, vs control.
The mark [4] stands for this setting: G2 females, all groups of parental exposure.
The mark [5] stands for this setting: G2 male offspring of both exposed parents.

Structures are written as SMILES.

`FCOC(C(F)(F)F)C(F)(F)F` [sevoflurane, 1,1,1,3,3,3-hexafluoro-2-(fluoromethoxy)propane]: the “serum levels of corticosterone” value in data set [1] (G1 female rats) and in data set [1] (G1 male rats) was “significantly increased” each time. Also, the “EPM parameters (time in open arms, number of crossings, distance traveled)” value in data set [2] (G1 female rats, vs control) is on record as “no significant between-subjects effect”. Moreover, the “distance traveled, EPM” value is given as “did not differ” in data set [2] (setting [3]) and “shorter distances” in data set [2] (setting [5]). The “number of crossings, EPM” value was “did not differ” in data set [2] (setting [3]), “similar” in data set [2] (setting [4]) and “fewer crossings” in data set [2] (setting [5]). Moreover, the “time spent in open arms, EPM” value is “spent less time in open arms” in data set [2] (setting [3]); “similar” in data set [2] (setting [4]); “spent less time in open arms” in data set [2] (G2 male progeny of exposed fathers and exposed mothers, vs offspring of control parents); “spent less time in open arms” in data set [2] (G2 male progeny of sevoflurane exposed fathers and unexposed mothers, vs offspring of control parents); “spent less time in open arms” in data set [2] (G2 male progeny of unexposed fathers and exposed mothers, vs offspring of control parents). The “distances traveled, EPM” value in data set [2] (setting [4]) is “similar”.
